Test results as given in ChEMBL document CHEMBL3046649, “Fungitoxic and Phytotoxic Activities of Cinnamic Acid Esters and Amides” (2000).

How the values were obtained:
[1] = test system: Brassica rapa subsp. chinensis; assay: whole plant or invertebrate; type: functional; settings: 72 h, read-out: GI
Description: Phytotoxicity against Brassica rapa subsp. chinensis assessed as growth inhibition of radicle at 100 ppm treated to seeds after 3 days

Pythium [2] = assay: microbe, parasite or virus in culture; type: functional; settings: read-out: GI
Description: Fungitoxic activity against Pythium sp. assessed as mycelial growth inhibition at 100 ppm after 4 to 5 days by agar dilution method

Pythium [3] = assay: Fungitoxic activity against Pythium sp. assessed as mycelial growth inhibition at 10 ppm after 4 to 5 days by agar dilution method; settings: read-out: GI
Athelia rolfsii [4] = assay: microbe, parasite or virus in culture; type: functional; settings: Agroathelia rolfsii, read-out: GI
Description: Fungitoxic activity against Athelia rolfsii assessed as mycelial growth inhibition at 100 ppm after 4 to 5 days by agar dilution method

Athelia rolfsii [5] = assay: Fungitoxic activity against Athelia rolfsii assessed as mycelial growth inhibition at 10 ppm after 4 to 5 days by agar dilution method; type: functional; settings: Agroathelia rolfsii; read-out: GI
[6] = test system: Brassica rapa subsp. chinensis; assay: whole plant or invertebrate; type: functional; settings: 72 h, read-out: GI; remark: listed apart in the source
Description: Phytotoxicity against Brassica rapa subsp. chinensis assessed as growth inhibition of hypocotyl at 100 ppm treated to seeds after 3 days

| Structure (SMILES) | inhibition of growth at 100 ppm [1] [%] | inhibition of growth at 100 ppm (Pythium [2]) [%] | inhibition of growth at 10 ppm (Pythium [3]) [%] | inhibition of growth at 100 ppm (Athelia rolfsii [4]) [%] | inhibition of growth at 10 ppm (Athelia rolfsii [5]) [%] | inhibition of growth at 100 ppm [6] [%] |
| --- | --- | --- | --- | --- | --- | --- |
| CCC(C)NC(=O)/C=C/c1ccc(C(C)C)cc1 (centres undefined) [N-SEC-BUTYL-3-(4-ISOPROPYLPHENYL)ACRYLAMIDE] | 46 | 73 | 36 | 84 | 33 | 29 |
| CCC(C)NC(=O)/C=C/c1ccccc1 (centres undefined) [N-SEC-BUTYLCINNAMAMIDE] | 77 | 47 | 0 | 95 | 35 | 56 |
| CC(C)(C)NC(=O)/C=C/c1ccccc1 [N-TERT-BUTYLCINNAMAMIDE] | 73 | 71 | 14 | 92 | 26 | 34 |
| CCCCCOC(=O)/C=C/c1ccc(Cl)cc1Cl [PENTYL 3-(2,4-DICHLOROPHENYL)ACRYLATE] | 0 | 43 | 9 | 75 | 14 | 22 |
| CCCCCOC(=O)/C=C/c1ccc(Cl)cc1 [PENTYL 3-(4-CHLOROPHENYL)ACRYLATE] | 22 | 58 | 17 | 82 | 20 | 27 |
| CCCCCOC(=O)/C=C/c1ccc(C(C)C)cc1 [PENTYL 3-(4-ISOPROPYLPHENYL)ACRYLATE] | 0 | 51 | 3 | 79 | 13 | 29 |
| O=C(/C=C/c1ccc(Cl)cc1Cl)OCCc1ccccc1 [PHENETHYL 3-(2,4-DICHLOROPHENYL)ACRYLATE] | 0 | 63 | 21 | 79 | 0 | 32 |
| O=C(/C=C/c1ccc(Cl)cc1)OCCc1ccccc1 [PHENETHYL 3-(4-CHLOROPHENYL)ACRYLATE] | 31 | 60 | 13 | 84 | 9 | 36 |
| CC(C)c1ccc(/C=C/C(=O)OCCc2ccccc2)cc1 [PHENETHYL 3-(4-ISOPROPYLPHENYL)ACRYLATE] | 0 | 49 | 13 | 70 | 10 | 36 |
| CCCOC(=O)/C=C/c1ccc(Cl)cc1Cl [PROPYL 3-(2,4-DICHLOROPHENYL)ACRYLATE] | 79 | 77 | 14 | 84 | 32 | 41 |
| CCCOC(=O)/C=C/c1ccc(Cl)cc1 [PROPYL 3-(4-CHLOROPHENYL)ACRYLATE] | 78 | 87 | 8 | 97 | 41 | 40 |
| CCCOC(=O)/C=C/c1ccc(C(C)C)cc1 [PROPYL 3-(4-ISOPROPYLPHENYL)ACRYLATE] | 5 | 68 | 13 | 89 | 43 | 8 |
| CCCOC(=O)/C=C/c1ccccc1 [PROPYL CINNAMATE] | 7 | 95 | 18 | 86 | 40 | 31 |
| CCC(C)OC(=O)/C=C/c1ccccc1 (centres undefined) [SEC-BUTYL CINNAMATE] | 20 | 69 | 21 | 70 | 40 | 18 |
